Results taken from patent US10238655B2, “Dihydroindene and tetrahydronaphthalene compounds” (ARIZONA BOARD OF REGENTS ON BEHALF OF ARIZONA STATE …, priority 2017, dated 2019).

Molecular target: hRXRβ (Homo sapiens, UniProt P28702)
Conditions: read-out: EC50 for the hRXRβ isoform; cited from earlier work

Chain of hRXRβ (P28702 whole entry, canonical isoform): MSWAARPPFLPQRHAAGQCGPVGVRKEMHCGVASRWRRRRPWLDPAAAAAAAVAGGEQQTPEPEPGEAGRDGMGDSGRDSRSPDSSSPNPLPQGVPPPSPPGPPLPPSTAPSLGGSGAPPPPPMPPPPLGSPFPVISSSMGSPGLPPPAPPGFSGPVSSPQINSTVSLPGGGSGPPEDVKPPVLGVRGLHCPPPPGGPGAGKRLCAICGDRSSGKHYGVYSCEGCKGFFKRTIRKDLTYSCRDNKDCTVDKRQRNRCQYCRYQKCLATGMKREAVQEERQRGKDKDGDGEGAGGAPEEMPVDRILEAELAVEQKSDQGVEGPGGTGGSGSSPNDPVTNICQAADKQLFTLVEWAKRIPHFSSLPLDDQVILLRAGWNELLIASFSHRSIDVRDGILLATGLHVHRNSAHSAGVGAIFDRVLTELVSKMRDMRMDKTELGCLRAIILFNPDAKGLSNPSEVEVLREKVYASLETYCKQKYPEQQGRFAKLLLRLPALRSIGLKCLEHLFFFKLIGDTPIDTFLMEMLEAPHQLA

| SMILES | EC50 [nM] |
| --- | --- |
| Cc1cc2c(cc1-c1cc(/C=C/C(=O)O)ccc1O)C(C)(C)CCC2(C)C [CD3254] | ~10 |

Test system: not given
Conditions: not given

| SMILES | melting point [°C] |
| --- | --- |
| CCN(c1ccc2c(c1)C(C)(C)CCC2(C)C)c1ccc(C(=O)O)cn1 [Example 1, 6-(ethyl(5,5,8,8-tetramethyl-5,6,7,8-tetrahydronaphthalen-2-yl)amino)nicotinic acid] | 230 to 232 |
| CCN(c1ccc(C(=O)O)cc1)c1ccc2c(c1)C(C)(C)CCC2(C)C [Example 2, 4-(Ethyl(5,5,8,8-tetramethyl-5,6,7,8-tetrahydronaphthalen-2-yl)amino)benzoic acid] | 247.8 to 250.6 |
| CCN(c1ncc(C(=O)O)cn1)c1cc2c(cc1C)C(C)(C)CCC2(C)C [Example 6, 2-(Ethyl(3,5,5,8,8-pentamethyl-5,6,7,8-tetrahydronaphthalen-2-yl)amino)pyrimidine-5-carboxylic acid] | 231.9 to 233.1 |
| CCN(c1ccc2c(c1)C(C)(C)CCC2(C)C)c1cnc(C(=O)O)cn1 [Example 7, 5-(Ethyl(5,5,8,8-tetramethyl-5,6,7,8-tetrahydronaphthalen-2-yl)amino)pyrazine-2-carboxylic acid] | 213.1 to 214.4 |

Further lines, results first:

| melting point [°C] | SMILES |
| --- | --- |
| 252.4 to 256.8 | CCN(c1ccc(C(=O)O)cc1)c1cc2c(cc1C)C(C)(C)CCC2(C)C [Example 3, 4-(Ethyl(3,5,5,8,8-pentamethyl-5,6,7,8-tetrahydronaphthalen-2-yl)amino)benzoic acid] |
| 203.6 to 205.1 | CCN(c1cnc(C(=O)O)cn1)c1cc2c(cc1C)C(C)(C)CCC2(C)C [Example 8, 5-(Ethyl(3,5,5,8,8-pentamethyl-5,6,7,8-tetrahydronaphthalen-2-yl)amino)pyrazine-2-carboxylic acid] |
| 252.4 to 256.8 | CCN(c1ccc(C(=O)O)c(F)c1)c1ccc2c(c1)C(C)(C)CCC2(C)C [Example 9, 4-(Ethyl(5,5,8,8-tetramethyl-5,6,7,8-tetrahydronaphthalen-2-yl)amino)-2-fluorobenzoic acid] |
| 241.4 to 243.8 | CCN(c1ccc(C(=O)O)c(F)c1)c1cc2c(cc1C)C(C)(C)CCC2(C)C [Example 10, 4-(Ethyl(3,5,5,8,8-pentamethyl-5,6,7,8-tetrahydronaphthalen-2-yl)amino)-2-fluorobenzoic acid] |
